In patent publication US5726162A (priority 1996, dated 1998):
Values joined by “and” are separate entries in the source; they are usually repeats but may differ in a detail not shown here. Equal values may be shown once. Read-outs that look alike come from different tables or passages of the source.

Key:
fungal mycelium = experiment: organism not typed; assay type: cell-based; settings: read-out: % growth inhibition
[1] = test system: Magnaporthe grisea (Pyricularia oryzae); experiment: whole plant or invertebrate; assay type: in vivo, Magnaporthe grisea (Pyricularia oryzae) on M201 rice plants; settings: Pyricularia oryzae, 144 h, read-out: % Control RB
[2] = test system: Thanatephorus cucumeris (Rhizoctonia solani); experiment: In vivo test b) Rice Sheath Blight (RSB), 24 hour preapplication protectant, % control; settings: protectant; for pest or weed control at 200 ppm: read-out: % Control RSB
Protocol: Compounds were tested at 200 ppm as a twenty-four hour preapplication protectant test prior to inoculation.
b) Rice Sheath Blight (RSB)
Thanatephorus cucumeris (Rhizoctonia solani) mycelia were grown for six days in potato dextrose broth in shake culture. Drained mycelial mats were blended with an approximately equal weight of rice flour and five parts water. This slurry was dispensed onto the soil surface of pots containing rice seedlings previously treated with experimental compounds. The plants were placed in a mist chamber at 25°-28° C. for 48 hours. Following two more days at 25° C. and 70-90% relative humidity the plants were evaluated for percent disease control compared to check plants.

Candida albicans = experiment: Activity against Candida albicans in microtiter plates, % control of growth; assay type: cell-based
Protocol: The activity against Candida albicans was determined using the following test protocol.
Conidia and mycelium from the Candida albicans culture maintained on potato dextrose agar plates were lightly scraped off into yeast extract-dextrose broth (YDB) so that mostly conidia was used as inoculum. The conidial suspsension was strained through a double layer of cheesecloth to remove mycelial clumps. The inoculum mixture was placed in microtiter plates using a 12-tipped pipet. 175 microliters were placed in each well of the microliter plates and the plates were placed in the refrigerator overnight. There were two replications.
The compounds to be tested were dissolved in 1:1 acetone:methanol and 100 ppm of the compound solution were placed in a well of the prepared microtiter plates.
The microtiter plates were incubated for 7 days at room temperature after addition of the compounds. Percent control was visually estimated using a microtiter plate reading mirror. Readings were made at 1, 2, 3, and/or 7 days after treatment.

fungal inoculum = experiment: organism not typed; assay type: cell-based; settings: read-out: % growth inhibition
Pyricularia oryzae [3] = assay type: in vivo, Pyricularia oryzae on M-201 rice plants; settings: protectant
Septoria nodorum = experiment: Wheat Septoria preventative experiments (single fungicides and combinations); assay type: in vivo, Septoria nodorum on Fielder wheat plants
Protocol: (§1) The experiments below were performed using the relevant following procedures.
(§2) Experimental compounds and commercial fungicides were tank mixed and mechanically sprayed at varying concentrations in a 1:1:2 mixture of acetone, methanol and water. Protective or preventive sprays were applied one day before spore inoculation. Curative or post-infection sprays were applied one day after spore inoculation. The spraying system utilized delivered a 200 ppm dose at the rate of 1458 liters per hectare. The following details were applicable for the specified diseases:
Fielder wheat plants were inoculated with Septoria nodorum conidia. The spore concentration was approximately 3,000,000 conidia per milliliter in water. An atomizer was used to apply twenty milliliters of inoculum to twenty plants per flat. The plants were placed in a humidity cabinet at 100% relative humidity for 72 hours and then placed in a greenhouse. Evaluations were made 10 days after inoculation.
(§3) "Disease control" was recorded as percent control based on a comparison of the unsprayed, inoculated controls and the treated, inoculated plants.

Pyricularia oryzae [4] = assay type: in vivo, Pyricularia oryzae on M-201 rice plants; settings: curative
Boytrytis cinerea = experiment: Tomato Botrytis protective experiments (single fungicides and combinations); assay type: in vivo, Boytrytis cinerea on Pixie tomato plants
Protocol: as §1, §2
Three week-old "Pixie" tomato plants were inoculated with Boytrytis cinerea conidia. The plants were held in dim light for two days prior to inoculation. The spore concentration was 500,000 to 650,000 conidia per milliliter of dextrose solution. An atomizer was used to apply the conidial suspension in a heavy coating to near runoff to both the upper and lower leaf surfaces and to the plant stem. The plants were kept in a continuous mist chamber with a day-night cycle and at 20 degrees centigrade for 5 days.
as §3

[5] = 24 h, 1 day after treatment, read-out: % control of growth +1
[6] = 48 h, 2 days after treatment, read-out: % control of growth +2
[7] = 72 h, 3 days after treatment, read-out: % control of growth +3
[8] = 168 h, 7 days after treatment, read-out: % control of growth +7

## CCC#CCN1N=C(c2ccc(Cl)cc2)OCC1=O [Compound 161, 2-(4-chlorophenyl)-4-(2-pentyn-1-yl)-4H,6H-1,3,4-oxadiazin-5-one]
Fungal mycelium
  inhibition at 1 ppm: 75.9%
[1]
  pest or weed control at 200 ppm: 99%
[2]
  pest or weed control at 200 ppm: 0%
Candida albicans; [5]
  inhibition of growth at 100 ppm: 100%
Candida albicans; [6]
  inhibition of growth at 100 ppm: 100%
Candida albicans; [7]
  inhibition of growth at 100 ppm: 100%

## C=CC#CCn1nc(-c2ccc(Cl)c(F)c2)ccc1=O [Compound 128]
Fungal mycelium
  inhibition at 0.156 ppm: 100%
[1]
  pest or weed control at 200 ppm: 95%
[2]
  pest or weed control at 200 ppm: 0%
Candida albicans; [5]
  inhibition of growth at 100 ppm: 100%
Candida albicans; [6]
  inhibition of growth at 100 ppm: 100%
Candida albicans; [7]
  inhibition of growth at 100 ppm: 100%

## C=CC#CCn1nc(-c2ccc(Cl)cc2)ccc1=O [Compound 119]
Fungal inoculum
  inhibition at 5 ppm: 99.3%
[1]
  pest or weed control at 100 ppm: 95%
[2]
  pest or weed control at 100 ppm: 0%
Candida albicans; [5]
  inhibition of growth at 100 ppm: 100%
Candida albicans; [6]
  inhibition of growth at 100 ppm: 100%
Candida albicans; [7]
  inhibition of growth at 100 ppm: 100%
Candida albicans; [8]
  inhibition of growth at 100 ppm: 100%

## CC#CCN1N=C(c2ccc(OC)cc2)CCC1=O [Compound 11, 6-(4-methoxyphenyl)-2-(2'-butynyl)-4,5-dihydropyridazinone]
Fungal inoculum
  inhibition at 10 ppm: 87.7%
[1]
  pest or weed control at 200 ppm: 0%
[2]
  pest or weed control at 200 ppm: 0%

## C=CC#CCN1N=C2c3ccc(Cl)cc3CC2CC1=O (stereo not drawn) [Compound 156, 7-chloro-2,4,4a,5-tetrahydro-2-(2-pentyn-4-ene-1-yl)-indeno [1,2-c]-pyridazin-3-one]
Fungal mycelium
  inhibition at 1 ppm: 100%
[1]
  pest or weed control at 200 ppm: 100%
[2]
  pest or weed control at 200 ppm: 95%
Candida albicans; [5]
  inhibition of growth at 100 ppm: 100%
Candida albicans; [6]
  inhibition of growth at 100 ppm: 100%
Candida albicans; [7]
  inhibition of growth at 100 ppm: 100%

## CC#CCCN1N=C(c2ccc(Cl)cc2)CCC1=O [Compound 21]
Fungal inoculum
  inhibition at 100 ppm: 45.8%
[1]
  pest or weed control at 200 ppm: 0%
[2]
  pest or weed control at 200 ppm: 0%

## C=CCOC1=NS(=O)(=O)c2ccccc21 [probenazole]
Pyricularia oryzae [3]; 12 ppm alone
  % Disease Control, Observed: 0%
Pyricularia oryzae [3]; 50 ppm alone
  % Disease Control, Observed: 0%
Pyricularia oryzae [3]; 200 ppm alone
  % Disease Control, Observed: 0%

## C#CCN1N=C(c2ccc(Cl)cc2)CCC1=O [Compound 6, 6-(4-chlorophenyl)-2-propargyl-4,5-dihydropyridazinone]
Fungal inoculum
  inhibition at 100 ppm: 91.5%
[1]
  pest or weed control at 200 ppm: 0%
[2]
  pest or weed control at 200 ppm: 0%

## CC(C)NC(=O)N1CC(=O)N(c2cc(Cl)cc(Cl)c2)C1=O [iprodione, reference compound]
Septoria nodorum; 12 ppm alone
  % Disease Control, Observed: 0%
Septoria nodorum; 50 ppm alone
  % Disease Control, Observed: 0%
Septoria nodorum; 200 ppm alone
  % Disease Control, Observed: 50%

## CCC#CCn1cc(-c2ccc(Cl)cc2)ccc1=O [Compound 145, 5-(4-chlorophenyl)-1-(2-pentyn-1-yl)-2-pyridinone]
Fungal inoculum
  inhibition at 1 ppm: 96%
[1]
  pest or weed control at 200 ppm: 95%
[2]
  pest or weed control at 100 ppm: 0%

## C=CC#CCN1N=C(c2ccc(Cl)c(F)c2)CCC1=O [Compound 100]
Fungal mycelium
  inhibition at 0.16 ppm: 100%
[1]
  pest or weed control at 200 ppm: 100%
[2]
  pest or weed control at 200 ppm: 0%
Candida albicans; [5]
  inhibition of growth at 100 ppm: 100%
Candida albicans; [6]
  inhibition of growth at 100 ppm: 100%
Candida albicans; [7]
  inhibition of growth at 100 ppm: 100%

## O=C1CCC(c2ccc(Cl)cc2)=NN1CC#Cc1ccccc1 [Compound 17]
Fungal inoculum
  inhibition at 25 ppm: 91.9%
[1]
  pest or weed control at 200 ppm: 0%
[2]
  pest or weed control at 200 ppm: 80%

## CCC#CCN1N=C(c2ccc(Cl)cc2)CCC1=O [Compound 12, 6-(4-chlorophenyl)-2-(2'-pentynyl)-4,5-dihydropyridazinone]
Fungal inoculum
  inhibition at 1 ppm: 96%
[1]
  pest or weed control at 200 ppm: 99%
[2]
  pest or weed control at 200 ppm: 50%
Candida albicans; [5]
  inhibition of growth at 100 ppm: 100%
Candida albicans; [6]
  inhibition of growth at 100 ppm: 100%
Candida albicans; [7]
  inhibition of growth at 100 ppm: 100%
Candida albicans; [8]
  inhibition of growth at 100 ppm: 100%
Pyricularia oryzae [3]; 12 ppm alone
  % Disease Control, Observed: 0%
Pyricularia oryzae [3]; 50 ppm alone
  % Disease Control, Observed: 50%
Pyricularia oryzae [3]; 200 ppm alone
  % Disease Control, Observed: 50%

## N#Cc1c(Cl)c(Cl)c(Cl)c(C#N)c1Cl [chlorothalonil]
Pyricularia oryzae [3]; 12 ppm alone
  % Disease Control, Observed: 0%
Pyricularia oryzae [3]; 50 ppm alone
  % Disease Control, Observed: 0%
Pyricularia oryzae [3]; 200 ppm alone
  % Disease Control, Observed: 99%

## CCC#CCn1nc(-c2ccc(Cl)cc2)ccc1=O [Compound 109, 6-(4-chlorophenyl)-2-(2'-pentynyl)pyridazinone]
Fungal mycelium
  inhibition at 1 ppm: 100%
[1]
  pest or weed control at 200 ppm: 99%
[2]
  pest or weed control at 200 ppm: 100%
Candida albicans; [5]
  inhibition of growth at 100 ppm: 100%
Candida albicans; [6]
  inhibition of growth at 100 ppm: 100%
Candida albicans; [7]
  inhibition of growth at 100 ppm: 100%
Candida albicans; [8]
  inhibition of growth at 100 ppm: 100%
Pyricularia oryzae [3]; 12 ppm alone
  % Disease Control, Observed: 0%
Pyricularia oryzae [3]; 50 ppm alone
  % Disease Control, Observed: 0%
Pyricularia oryzae [3]; 200 ppm alone
  % Disease Control, Observed: 99% and 80%
Pyricularia oryzae [4]; 12 ppm alone
  % Disease Control, Observed: 0%
Pyricularia oryzae [4]; 50 ppm alone
  % Disease Control, Observed: 50%
Pyricularia oryzae [4]; 200 ppm alone
  % Disease Control, Observed: 80%
Septoria nodorum; 12 ppm alone
  % Disease Control, Observed: 0%
Septoria nodorum; 50 ppm alone
  % Disease Control, Observed: 50%
Septoria nodorum; 200 ppm alone
  % Disease Control, Observed: 50%
Boytrytis cinerea; 50 ppm alone
  % Disease Control, Observed: 0%
Boytrytis cinerea; 200 ppm alone
  % Disease Control, Observed: 75%

## CCC(O)CN1N=C(c2ccc(Cl)c(Cl)c2)CCC1=O (stereo not drawn) [Compound 3]
Fungal inoculum
  inhibition at 100 ppm: 53.6%
[1]
  pest or weed control at 200 ppm: 0%
[2]
  pest or weed control at 200 ppm: 0%

## CCC#CCn1cc(-c2ccc(Cl)cc2)cnc1=O [Compound 150]
Fungal inoculum
  inhibition at 50 ppm: 48.2%
[1]
  pest or weed control at 200 ppm: 99%
[2]
  pest or weed control at 200 ppm: 95%

## O=C1CCc2cccc3c2N1CC3 [pyroquilon]
Pyricularia oryzae [3]; 12 ppm alone
  % Disease Control, Observed: 0%
Pyricularia oryzae [3]; 50 ppm alone
  % Disease Control, Observed: 0%
Pyricularia oryzae [3]; 200 ppm alone
  % Disease Control, Observed: 85%

## CCC(O)CN1N=C(c2ccc(Cl)cc2)CCC1=O (stereo not drawn) [Compound 4]
Fungal inoculum
  inhibition at 100 ppm: 26.7%
[1]
  pest or weed control at 200 ppm: 0%
[2]
  pest or weed control at 200 ppm: 0%

## N#CC(CCc1ccc(Cl)cc1)(Cn1cncn1)c1ccccc1 (stereo not drawn) [fenbuconazole, alpha-[2-(4-chlorophenyl)ethyl]-alpha-phenyl-1H-1,2,4-triazole-1-propanenitrile]
Boytrytis cinerea; 6 ppm alone
  % Disease Control, Observed: 50%
Boytrytis cinerea; 25 ppm alone
  % Disease Control, Observed: 75%
Boytrytis cinerea; 50 ppm alone
  % Disease Control, Observed: 75%

## mancozeb [reference compound]
Pyricularia oryzae [3]; 50 ppm alone
  % Disease Control, Observed: 75%
Pyricularia oryzae [3]; 200 ppm alone
  % Disease Control, Observed: 99%
Pyricularia oryzae [4]; 50 ppm alone
  % Disease Control, Observed: 0%
Pyricularia oryzae [4]; 200 ppm alone
  % Disease Control, Observed: 0%
